Laboratory results reported in US20120255051A1, “HERBICIDE TOLERANT PLANTS” (priority 2009, published 2012).
Values joined by “and” are separate entries in the source; they are usually repeats but may differ in a detail not shown here. Equal values may be shown once.

Tested on: Brassica plants comprising mutant AHAS alleles
Experiment: Field trial, pre-planting treatment (0, 10, 20, 30 g a.i./ha), two locations in Canada: ERG, EST1, EST2, PPTOX, VIG1, VIG2, VIG3 scores
Format: in vivo, Brassica napus
Source text: Tests were set up and conducted to asses the growth and performance of plants comprising AHAS full knock-out alleles, and to further analyze the correlation between the presence of full knockout and missense AHAS genes in Brassica plants and plant growth and herbicide tolerance of the Brassica plants in the field. To this end, the Brassica plants identified in Example 1 and 2 were backcrossed two times with an elite parent line, and subsequently selfed twice to obtain homozygous plants (BC2S2). Plants were grown as row plots in a split plot design with three replicates (main plots=herbicide treatments, subplots=genotypes) at two locations in Canada. Treatment pre-planting was carried out on the soil about two days before sowing with a dose of 0 (treatment A), 10 (treatment B), 20 (treatment C) or 30 (treatment D) g a.i./ha of thiencarbazone methyl. Herbicide tolerance was measured by scoring for different parameters. The parameter emergence (ERG) was scored at the cotyledon stage on a scale 1-9, where 1 means late emergence and 9 means early emergence. Establishment was scored 14 days after sowing (EST1) and 21 days after sowing (EST2). Scores were from 1 to 9, where 1 is the worst establishment (least plants that emerged), and 9 is the best establishment (most plants emerged). Phytotoxicity (PPTOX) was determined after establishment. Plants were evaluated on a scale of 1 to 9, where 1=completely yellowing, 5=50% of plant is yellow and 9=no yellowing. The vigor scores (see above) were determined at 1-2 leaf stage (VIG1), 7 days after VIG1 (VIG2) and 14 days after VIG1 (VIG3). The average values (Av) and standard deviations (SD) of the scores for the different parameters are represented in Table 7a-g.
Further, the contribution of the knock-out allele to herbicide tolerance conferred by the missense allele was calculated. First, the scores were corrected for a possible effect of the growth per se, independent of herbicide treatment. To this end, the scores for treatments B, C and D were divided by the scores for treatment A for the same genotype and for the same parameter (corrected herbicide tolerance scores). Next, the effect of the knock-out allele to these corrected herbicide tolerance scores obtained by the missense allele was calculated. Therefore, the corrected herbicide tolerance scores for the missense—knock-out allele combination was divided by the corrected herbicide tolerance scores for the missense allele—wild-type combination. In case the knock-out allele has no effect on herbicide tolerance conferred by the missense allele, this ratio should be 1. In case the knock-out allele positively contributes to the herbicide tolerance conferred by the missense allele, this ratio should be higher than 1. The results for the contribution of the knock-out allele to herbicide tolerance conferred by the missense allele as calculated above are shown in table 8.

[1] = Location B, treatment D 30 g a.i./ha pre-planting, ratio >1 = positive contribution

## COC(=O)c1csc(C)c1S(=O)(=O)NC(=O)n1nc(OC)n(C)c1=O [thiencarbazone-methyl, methyl 4-[(4,5-dihydro-3-methoxy-4-methyl-5-oxo-1H-1,2,4-triazol-1-yl)carbonylsulfamoyl]-5-methylthiophene-3-carboxylate]
[1]
  relative contribution of HETO104 (AHAS3 KO) to herbicide tolerance conferred by HETO108 (AHAS1 missense): EST2: 0.95
  relative contribution of HETO104 (AHAS3 KO) to herbicide tolerance conferred by HETO108 (AHAS1 missense): PPTOX: 1.44
  relative contribution of HETO104 (AHAS3 KO) to herbicide tolerance conferred by HETO108 (AHAS1 missense): VIG1: 1.40
  relative contribution of HETO104 (AHAS3 KO) to herbicide tolerance conferred by HETO108 (AHAS1 missense): VIG2: 1.38
  relative contribution of HETO104 (AHAS3 KO) to herbicide tolerance conferred by HETO108 (AHAS1 missense): VIG3: 1.34
  relative contribution of HETO112 (AHAS1 KO) to herbicide tolerance conferred by HETO111 (AHAS3 missense): ERG: 0.88
  relative contribution of HETO112 (AHAS1 KO) to herbicide tolerance conferred by HETO111 (AHAS3 missense): EST1: 0.97
  relative contribution of HETO112 (AHAS1 KO) to herbicide tolerance conferred by HETO111 (AHAS3 missense): EST2: 0.92
  relative contribution of HETO112 (AHAS1 KO) to herbicide tolerance conferred by HETO111 (AHAS3 missense): PPTOX: 0.76
  relative contribution of HETO112 (AHAS1 KO) to herbicide tolerance conferred by HETO111 (AHAS3 missense): VIG1: 0.75
  relative contribution of HETO112 (AHAS1 KO) to herbicide tolerance conferred by HETO111 (AHAS3 missense): VIG2: 1.07
  relative contribution of HETO112 (AHAS1 KO) to herbicide tolerance conferred by HETO111 (AHAS3 missense): VIG3: 1.11
Plants AHAS1 HETO108 / AHAS3 HETO104, 10 g a.i./ha (treatment B) pre-planting, Location A
  vigor3 (VIG3) score, Av: 8.00
Plants AHAS1 HETO108 / AHAS3 HETO104, 10 g a.i./ha (treatment B) pre-planting, Location B
  vigor3 (VIG3) score, Av: 5.33
Plants AHAS1 HETO108 / AHAS3 HETO104, 20 g a.i./ha (treatment C) pre-planting, Location A
  vigor3 (VIG3) score, Av: 6.67
Plants AHAS1 HETO108 / AHAS3 HETO104, 20 g a.i./ha (treatment C) pre-planting, Location B
  vigor3 (VIG3) score, Av: 6.67
Plants AHAS1 HETO108 / AHAS3 HETO104, 30 g a.i./ha (treatment D) pre-planting, Location A
  vigor3 (VIG3) score, Av: 6.67
Plants AHAS1 HETO108 / AHAS3 HETO104, 30 g a.i./ha (treatment D) pre-planting, Location B
  vigor3 (VIG3) score, Av: 6.00
Plants AHAS1 HETO108 / AHAS3 HETO111, 10 g a.i./ha (treatment B) pre-planting, Location A
  vigor3 (VIG3) score, Av: 8.33
Plants AHAS1 HETO108 / AHAS3 HETO111, 10 g a.i./ha (treatment B) pre-planting, Location B
  vigor3 (VIG3) score, Av: 7.67
Plants AHAS1 HETO108 / AHAS3 HETO111, 20 g a.i./ha (treatment C) pre-planting, Location A
  vigor3 (VIG3) score, Av: 7.00
Plants AHAS1 HETO108 / AHAS3 HETO111, 20 g a.i./ha (treatment C) pre-planting, Location B
  vigor3 (VIG3) score, Av: 6.67
Plants AHAS1 HETO108 / AHAS3 HETO111, 30 g a.i./ha (treatment D) pre-planting, Location A
  vigor3 (VIG3) score, Av: 8.00
Plants AHAS1 HETO108 / AHAS3 HETO111, 30 g a.i./ha (treatment D) pre-planting, Location B
  vigor3 (VIG3) score, Av: 4.33
Plants AHAS1 HETO108 / AHAS3 WT, 10 g a.i./ha (treatment B) pre-planting, Location A
  vigor3 (VIG3) score, Av: 8.33 and 7.67
Plants AHAS1 HETO108 / AHAS3 WT, 10 g a.i./ha (treatment B) pre-planting, Location B
  vigor3 (VIG3) score, Av: 5.33 and 6.00
Plants AHAS1 HETO108 / AHAS3 WT, 20 g a.i./ha (treatment C) pre-planting, Location A
  vigor3 (VIG3) score, Av: 7.33 and 7.00
Plants AHAS1 HETO108 / AHAS3 WT, 20 g a.i./ha (treatment C) pre-planting, Location B
  vigor3 (VIG3) score, Av: 6.33 and 8.00
Plants AHAS1 HETO108 / AHAS3 WT, 30 g a.i./ha (treatment D) pre-planting, Location A
  vigor3 (VIG3) score, Av: 7.00 and 7.33
Plants AHAS1 HETO108 / AHAS3 WT, 30 g a.i./ha (treatment D) pre-planting, Location B
  vigor3 (VIG3) score, Av: 5.33
Plants AHAS1 HETO112 / AHAS3 HETO111, 10 g a.i./ha (treatment B) pre-planting, Location A
  vigor3 (VIG3) score, Av: 8.00
Plants AHAS1 HETO112 / AHAS3 HETO111, 10 g a.i./ha (treatment B) pre-planting, Location B
  vigor3 (VIG3) score, Av: 7.33
Plants AHAS1 HETO112 / AHAS3 HETO111, 20 g a.i./ha (treatment C) pre-planting, Location A
  vigor3 (VIG3) score, Av: 7.00
Plants AHAS1 HETO112 / AHAS3 HETO111, 20 g a.i./ha (treatment C) pre-planting, Location B
  vigor3 (VIG3) score, Av: 5.67
Plants AHAS1 HETO112 / AHAS3 HETO111, 30 g a.i./ha (treatment D) pre-planting, Location A
  vigor3 (VIG3) score, Av: 7.67
Plants AHAS1 HETO112 / AHAS3 HETO111, 30 g a.i./ha (treatment D) pre-planting, Location B
  vigor3 (VIG3) score, Av: 5.67
Plants AHAS1 HETO112 / AHAS3 WT, 10 g a.i./ha (treatment B) pre-planting, Location A
  vigor3 (VIG3) score, Av: 1.00
Plants AHAS1 HETO112 / AHAS3 WT, 10 g a.i./ha (treatment B) pre-planting, Location B
  vigor3 (VIG3) score, Av: 1.00
Plants AHAS1 HETO112 / AHAS3 WT, 20 g a.i./ha (treatment C) pre-planting, Location A
  vigor3 (VIG3) score, Av: 1.00
Plants AHAS1 HETO112 / AHAS3 WT, 20 g a.i./ha (treatment C) pre-planting, Location B
  vigor3 (VIG3) score, Av: 1.00
Plants AHAS1 HETO112 / AHAS3 WT, 30 g a.i./ha (treatment D) pre-planting, Location A
  vigor3 (VIG3) score, Av: 1.00
Plants AHAS1 HETO112 / AHAS3 WT, 30 g a.i./ha (treatment D) pre-planting, Location B
  vigor3 (VIG3) score, Av: 1.00
Plants AHAS1 WT / AHAS3 HETO104, 10 g a.i./ha (treatment B) pre-planting, Location A
  vigor3 (VIG3) score, Av: 1.00
Plants AHAS1 WT / AHAS3 HETO104, 10 g a.i./ha (treatment B) pre-planting, Location B
  vigor3 (VIG3) score, Av: 1.00
Plants AHAS1 WT / AHAS3 HETO104, 20 g a.i./ha (treatment C) pre-planting, Location A
  vigor3 (VIG3) score, Av: 1.00
Plants AHAS1 WT / AHAS3 HETO104, 20 g a.i./ha (treatment C) pre-planting, Location B
  vigor3 (VIG3) score, Av: 1.00
Plants AHAS1 WT / AHAS3 HETO104, 30 g a.i./ha (treatment D) pre-planting, Location A
  vigor3 (VIG3) score, Av: 1.00
Plants AHAS1 WT / AHAS3 HETO104, 30 g a.i./ha (treatment D) pre-planting, Location B
  vigor3 (VIG3) score, Av: 1.00
Plants AHAS1 WT / AHAS3 HETO111, 10 g a.i./ha (treatment B) pre-planting, Location A
  vigor3 (VIG3) score, Av: 7.67 and 7.00
Plants AHAS1 WT / AHAS3 HETO111, 10 g a.i./ha (treatment B) pre-planting, Location B
  vigor3 (VIG3) score, Av: 7.33
Plants AHAS1 WT / AHAS3 HETO111, 20 g a.i./ha (treatment C) pre-planting, Location A
  vigor3 (VIG3) score, Av: 6.67
Plants AHAS1 WT / AHAS3 HETO111, 20 g a.i./ha (treatment C) pre-planting, Location B
  vigor3 (VIG3) score, Av: 6.00
Plants AHAS1 WT / AHAS3 HETO111, 30 g a.i./ha (treatment D) pre-planting, Location A
  vigor3 (VIG3) score, Av: 6.67 and 6.33
Plants AHAS1 WT / AHAS3 HETO111, 30 g a.i./ha (treatment D) pre-planting, Location B
  vigor3 (VIG3) score, Av: 4.67 and 5.33
Plants AHAS1 WT / AHAS3 WT, 10 g a.i./ha (treatment B) pre-planting, Location A
  vigor3 (VIG3) score, Av: 1.00
Plants AHAS1 WT / AHAS3 WT, 10 g a.i./ha (treatment B) pre-planting, Location B
  vigor3 (VIG3) score, Av: 1.33
Plants AHAS1 WT / AHAS3 WT, 20 g a.i./ha (treatment C) pre-planting, Location A
  vigor3 (VIG3) score, Av: 1.00
Plants AHAS1 WT / AHAS3 WT, 20 g a.i./ha (treatment C) pre-planting, Location B
  vigor3 (VIG3) score, Av: 1.00
Plants AHAS1 WT / AHAS3 WT, 30 g a.i./ha (treatment D) pre-planting, Location A
  vigor3 (VIG3) score, Av: 1.00
Plants AHAS1 WT / AHAS3 WT, 30 g a.i./ha (treatment D) pre-planting, Location B
  vigor3 (VIG3) score, Av: 1.00
